Test results: paper PMC5065625, “Structure-mechanism-based engineering of chemical regulators targeting distinct pathological factors in Alzheimer's disease” (Nature Communications, 2016)

Legend:
[1] = molecular target: T1, Cu(II)–Aβ40/Aβ42 (Homo sapiens, UniProt P05067); assay: nESI-MS / IM–MS interaction studies with Cu(II); assay type: binding; settings: Aβ40 18 μM, copper(II) acetate 40 μM, compound 120 μM, pH 7.5, 37 °C, 30 min
T1 construct: Aβ40 or Aβ42 was dissolved in ammonium hydroxide
Description: All IM–MS experiments were carried out on a Synapt G2 (Waters, Milford, MA)[27][28][29][58]. Samples were ionized using a nano-electrospray source operated in positive ion mode. MS instrumentation was operated at a backing pressure of 2.7 mbar and sample cone voltage of 40 V. The m/z scale was calibrated using 20 mg ml^−1 aqueous cesium iodide. For peptide-metal ligation studies, the aliquots of Aβ peptides (final concentration 18 μM) were sonicated for 5 s before pre-incubation with or without a source of Cu(II) (copper(II) acetate) at 37 °C for 10 min. […] Solution conditions were 100 mM ammonium acetate (pH 7.5) with 1% v/v DMSO. Covalent binding studies with 4 were performed by incubating aliquots of Aβ with the ligand at a ratio of 1:0, 1:5 and 1:25 in water for either 24 h or a week at 25 °C. After incubation the samples were lyophilized for storage until analysis. Immediately before analysis samples were reconstituted to 50 μM peptide concentration in 1,1,1,3,3,3-hexafluoro-2-propanol, sonicated and diluted further to 25 μM for data acquisition. Accurate mass values for ligand-bound complexes were calculated using the monoisotopic peak difference between apo and ligated states with errors reported as a function of two times the s.d. collision cross section (CCS) measurements were externally calibrated using a database of known values in helium, using values for proteins that bracket the likely CCS and ion mobility values of the unknown ions[58][59]. CCS values are the average of six replicates with errors reported as the least square product. This least square analysis combines inherent calibrant error from drift tube measurements (3%)[59]. calibration curve error, and two times the replicate s.d. error. All other conditions are consistent with previously published methods.
Aβ (100 μM) was incubated with 4 (500 μM) in 100 mM ammonium acetate, pH 7.5, without and with the addition of CuCl2 (100 μM) for 1 h at 37 °C without agitation. Before injection into the mass spectrometer, the resulting Aβ was diluted by 10-fold. ESI–MS analysis was performed using a Synapt G2-Si quadrupole time-of-flight mass spectrometer (Waters, Manchester, UK) equipped with electrospray ionization source. The capillary voltage, sampling cone voltage, and source temperature were set to 2.8 kV, 70 V, and 60 °C, respectively. The backing pressure was adjusted to 3.2 mbar.

[2] = tested on: cationic organic radical of ABTS; assay: Trolox equivalent antioxidant capacity (TEAC) assay in M17 cell lysates; assay type: biochemical, human; settings: relative to Trolox
Description: The assay employing M17 cell lysates was conducted following the protocol of the antioxidant assay kit purchased from Cayman Chemical Company (Ann Arbor, MI, USA) with minor modifications. For the antioxidant assay using cell lysates, cells were seeded in a six-well plate and grown to ∼80–90% confluence. Cell lysates were prepared following a previously reported method with modifications. M17 cells were washed once with cold PBS (pH 7.4, GIBCO) and harvested by gently pipetting off adherent cells with cold PBS. The cell pellet was generated by centrifugation (2,000g for 10 min at 4 °C). This cell pellet was sonicated on ice (5 s pulses, three times with 20 s intervals between each pulse) in 2 ml of cold Assay Buffer (5 mM potassium phosphate, pH 7.4, containing 0.9% NaCl and 0.1% glucose). The cell lysates were centrifuged at 5,000g for 10 min at 4 °C. The supernatant was removed and stored on ice until use. For standard and samples in 96-well plates, 10 μl of the supernatant of cell lysates was delivered followed by addition of compound, metmyoglobin, ABTS and H2O2 in order. After 5 min incubation at room temperature on a shaker, absorbance values at 750 nm were recorded. The antioxidant concentration was calculated according to the measured absorbance (% inhibition=100 × (A0 – A)/A0, where A0 is absorbance of the supernatant of cell lysates). The measurements were conducted in triplicate.

T1 sequence (P05067 672-711): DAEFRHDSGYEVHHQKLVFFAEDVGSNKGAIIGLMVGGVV

| Compound | Interaction with Aβ in the presence of Cu(II) [1] | Free organic radical scavenging ability (TEAC) [2] |
| --- | --- | --- |
| Nc1ccc(NCc2ccccn2)cc1 [compound 1, N^1-(pyridin-2-ylmethyl)benzene-1,4-diamine] | Cu–ligand-dependent signals corresponding to a mass 89 Da lighter than the apo Aβ40/Aβ42 | greater capacity than 2 |
| COc1cc(NCc2ccccn2)cc(OC)c1 [compound 2, 3,5-dimethoxy-N-(pyridin-2-ylmethyl)aniline] | stable ternary complexes | – |
| CN(C)c1ccc(NCc2ccc3ccccc3n2)cc1 [compound 3, N^1,N^1-dimethyl-N^4-(quinolin-2-ylmethyl)benzene-1,4-diamine] | Cu–ligand-dependent signals corresponding to a mass 89 Da lighter than the apo Aβ40/Aβ42 | greater capacity than 2 |
| CN(C)c1ccc(NCc2ccc[nH]2)cc1 [compound 4, N^1-((1H-pyrrol-2-yl)methyl)-N^4,N^4-dimethylbenzene-1,4-diamine] | not shown to bind to Aβ40 | greater capacity than 2 |
